The values below come from EP0144459A1, “Prostaglandins, their preparation and pharmaceutical compositions” (Dr. Willmar Schwabe GmbH & Co., priority 1983, dated 1985).

Test [1] relates to isolierte Kaninchenaortastreifen. Kind of test: Contractile effect on isolated rabbit aorta strips, dose-response compared with PGF2α (method of J.R. Vane). Set-up: species or system Kaninchen. The note with it: isolated rabbit aorta strip. The text has this:
Zum Beispiel wurde die kontrahierende Wirkung von (15R)-12-epi-PGF2ß an einem isolierten Kaninchenaortastreifen mit der des natürlichen PGF2α verglichen. […] Die Wirkung dieser erfindungsgemäßen Verbindung setzt bei etwa 3-10^-6M/lein (vgl. Abb. 1). In dieser Konzentration ist das (15-S)-Epimere des 12 epi-PGF2ßunwirksam. [drawing]
Abb. 1 Kontraktile Wirkung von (15R)-12-epi-PGF2β (x) und PGF2α (.) auf isolierte Kaninchenaortastreifen in Abhängigkeit von der Dosis. (c = Konzentration; K = Kontraktionskraft) (Gemessen nach: J.R. Vane, Br.J. Pharmacol. Chemother. 23, 360-373 (1964)).

In test [2] the test system is Langendorff-Herz; isolierte Aorta - Tracheen- und Fundus-Streifen; Kreislauf von Meerschweinchen und Hund. The experiment in a line: Battery of further pharmacological tests compared with PGF2α: Langendorff heart (coronary flow, heart rate, inotropy); isolated aorta, trachea and fundus strips; circulation of guinea pig and dog (blood pressure, heart rate). The note with it: in all tests of the battery, compared with natural PGF2α. The text has this:
In mehreren anderen Tests wurden (15R)- und (15S)-12-epi-PGF2ß sowie die beiden analogen erfindungsgemäßen 15-Mithylverbindungen mit dem bekannten PGF2α verßlichen. […] Die 15-Methyl-Derivate der 12-epi-PGF2β zeigen analoge Unterschiede der Wirkungsqualität der jeweiligen 15Rund l5S-Epimeren.

For `CCCCC[C@@H](O)/C=C/[C@H]1[C@@H](C/C=C\CCCC(=O)O)[C@H](O)C[C@H]1O` [(15R)-12-epi-PGF2β, 15R-12-epi-PGF2β], the “Wirkungsstärke (kontrahierende Wirkung) im Vergleich zu PGF2α” value in test [1] (dose-response curve runs parallel to that of PGF2α) is given as “ca. eine Zehnerpotenz niedrigeren Wirkungsstärke”. Also, in test [1] (threshold concentration of the contractile effect (Abb. 1), read-out: Konzentration, bei der die kontrahierende Wirkung einsetzt), the minimal effective concentration was around 3 µM. The Wirkungsqualität entry in test [2] was “parallel zu den Wirkungen des natürlichen PGF2α”.
For the compound `CCCCC[C@H](O)/C=C/[C@H]1[C@@H](C/C=C\CCCC(=O)O)[C@H](O)C[C@H]1O` [(15S)-12-epi-PGF2β, 12-epi-PGF2β], the “kontrahierende Wirkung” value in test [1] (at the concentration of about 3-10^-6M/l) is listed as “unwirksam”. Further, the Wirkungsqualität entry in test [2] is reported as “PGE2-ähnliche Wirkung”.
